Data on nine molecules can be found in patent publication US11249100B2, “Modular robotic systems for delivering fluid to microfluidic devices” (Worcester Polytechnic Institute, priority 2018, dated 2022).

Structures are written as SMILES. “Also recorded” adds a separate entry of the source.

The subject of assay [1] is AWA chemosensory neurons. Briefly: Automated solvent screen: optogenetically (Chrimson) evoked GCaMP calcium responses in living nematodes. The class given is in vivo, C. elegans. The note with it: for effect on peak fluorescent responses to Chrimson-induced activation: <1 min exposure, compared to prior buffer control, 20 young adult animals; for persistence of suppression after returning to buffer fluid: alternating buffer control wells after solvent wells. The protocol:
The C. elegans strain NZ1091 was integrated by irradiation and backcrossed at least 10×. Animals were grown and maintained at 20° C. on NGM plates with OP50 E. coli bacteria. At least 12 hrs prior to experimentation, L4 stage C. elegans were picked and transferred to 50 μM All Trans Retinal (ATR) in OP50 E. coli spotted onto an unseeded NGM plate. For the dose response experiment, C. elegans were selected as L4s the day before and tested as young adults the next day.
All solvents were prepared in Eppendorf tubes at 1% and 5% v/v concentrations to 1 mL in paralysis buffer (S. Basal buffer without cholesterol containing the acetylcholine agonist 1 mM (−)-tetramisole hydrochloride) and vortexed to mix for 30 s-1 min. Solvent dilutions were transferred to a 96 deep well plate (700µL/well). Alternating control wells were filled with 100 ng/mL fluorescein in paralysis buffer to visualize alternating solution delivery. Animals were exposed to paralysis buffer flow for ˜1-2 hrs prior to solvent delivery to keep animals stationary during recording. The 96 well plate was loaded with solvent solutions by hand the hour before recording and sealed with adhesive film (Glad® Press-n-Seal).
Methods followed those described previously. About 20-30 animals co-expressing GCaMP and Chrimson in the AWA chemosensory neuron pair were loaded into a modified high-throughput microfluidic imaging device optimized for 4× magnification with only the inlet, back pressure, worm loading, and outlet port(s) punched. Optical configurations were customized using an ASI RAMM frame and commercially available components for low-magnification wide-filed GCaMP excitation (4×/0.28 NA), compatible with Chrimson excitation, and high-resolution (1024×1024) 10 fps image acquisition. In addition to the optical set up described above, a 617 nm Mightex LED was mounted beneath the RAMM stage with an additional cube housing a 590 LP excitation dichroic to pass uniform Chrimson activation across the entire field of view. At each inlet well position, animals were exposed to solution for <1 min total, during which a 30 s delay was programmed to sufficiently fill the tubing after each well transfer for serially delivered solutions. Then, an immediate acquisition of 15 s (10 frames/s, 10 ms blue light pulse, 10 ms delay, 2×2 binning) began with a 617 nm light presence for 5 s (from 2.5 s to 7.5 s). Custom scripts were used for quantifying neuron fluorescence (Neurotracker ImageJ macro) and MATLAB17a for data analysis and visualization.
The robotic system was used to screen 14 different solvents at two concentrations (1% and 5%) for their effects on optogenetically-evoked neural responses. Solvent dilutions were prepared in a 96-well plate alternating with buffer control wells (FIG. 8A). A previously established high-throughput imaging device was used to record calcium signals from individual neurons of 20-25 young adult animals (FIG. 8B). Animals co-expressed the red-shifted channelrhodopsin (Chrimson) and the genetically encoded calcium sensor (GCaMP2.2b) in the AWA chemosensory neurons (FIG. 8C), allowing simultaneous optical stimulation and monitoring of neural responses.

The test system of assay [2] is AWA chemosensory neurons. Briefly: Automated diacetyl odor dose response, GCaMP calcium imaging. The class given is in vivo, C. elegans.
A further assay relates to ASER chemosensory neuron. The settings on record: ASER::GCaMP; downshift from base 40 mM NaCl; triplicate pulses.
Setting [3] is: 1% v/v solvent in paralysis buffer.
Where [4] appears, read: 5% v/v solvent in paralysis buffer.

Experimental for ASER chemosensory neuron: Salt solutions (0-40 mM) were prepared by diluting S. Basal buffer (100 mM NaCl) with an iso-osmotic buffer of 186 mM glycerol.
Either the input stimulus (in, fluorescein for visualization) or buffer can bathe the animals depending on which control channel flows (c1 for input, c2 for buffer). […] Triplicate pulses (10 s) are delivered once per minute at a given concentration, followed by an increase in concentration with a delay of ˜45 s.
Animals expressing GCaMP in the ASER chemosensory neuron, which responds to salt downshifts, were stimulated with triplicate repeat pulses of NaCl, decreasing from a base 40 mM NaCl to a variable level from 40 mM (0 change) to 0 mM (−40 mM change).

In the case of `CN(C)C=O` [DMF], the “effect on peak fluorescent responses to Chrimson-induced activation” value (“effect on peak fluorescent responses” below) in the assay with AWA chemosensory neurons [1] (setting [3]) is listed as “weaker suppressive effects”.

On to `CC(=O)C(C)=O` [diacetyl], for which the “diacetyl concentration giving a minimal but robust odor response in AWA” value in the assay with AWA chemosensory neurons [2] (AWA::GCaMP young adults, triplicate odor pulses once per minute) amounted to 0.1 µM. In addition, the “odor-evoked neural responses versus concentration” value in the assay with AWA chemosensory neurons [2] (AWA::GCaMP, diacetyl from 0.1 μM to 1 mM) was “strengthened with increasing odor concentration”.

With `C[S+](C)[O-]` [DMSO], the “effect on peak fluorescent responses” value with AWA chemosensory neurons [1] (setting [3]) was “variable and weakly suppressed responses; also recorded: weaker suppressive effects”.

In the case of `CCO` [ethanol], the “effect on peak fluorescent responses” value in the assay with AWA chemosensory neurons [1] (setting [4]) is “variable and weakly suppressed responses; also recorded: most significant suppressive effects”.

For the molecule `CO` [methanol], the “effect on peak fluorescent responses” value in the assay on AWA chemosensory neurons [1] (setting [3]) is recorded as “significantly suppressed”; with AWA chemosensory neurons [1] (setting [4]) it was “significantly suppressed; also recorded: most significant suppressive effects”. Besides, the “persistence of suppression after returning to buffer fluid” value (from here on “persistence of suppression”) in the assay on AWA chemosensory neurons [1] is “transient”.

Regarding `CC(C)O` [isopropanol], the figures for the “effect on peak fluorescent responses” value in the assay on AWA chemosensory neurons [1] (setting [3]) and with AWA chemosensory neurons [1] (setting [4]) were “significantly suppressed” and “significantly suppressed; also recorded: most significant suppressive effects”, respectively. Besides, in the assay with AWA chemosensory neurons [1], the “persistence of suppression” value is “transient”. In addition, the “effect on optogenetically-evoked neural responses” value in the assay with AWA chemosensory neurons [1] (solvents at 1% and 5%, concentration not separated) was “suppression of optogenetic stimulation”.

Consider `[Cl-].[Na+]` [NaCl], for which, in the assay with ASER chemosensory neuron, the “NaCl shift giving a minimal but robust response in ASE” value is “shift from 40 mM to 35 mM”.

As for `CC(C)=O` [acetone], the “effect on peak fluorescent responses” value in the assay with AWA chemosensory neurons [1] (setting [4]) is listed as “weaker suppressive effects”.

For `CC#N` [acetonitrile], the “effect on peak fluorescent responses” value in the assay on AWA chemosensory neurons [1] (setting [4]) is given as “significantly suppressed; also recorded: most significant suppressive effects”. Besides, the “persistence of suppression” value in the assay with AWA chemosensory neurons [1] is reported as “transient”.
